Experimental data as given in patent US20230103444A1 (The Regents of the University of Colorado, a Body Corporate, priority 2020, published 2023).
Where two headings read alike, the source gives them in different places.

Experiments:
SW620 tumor organoids = experiment: Tumor organoid cytotoxicity (CellTiter-Glo 3D)
[1] = Mouse liver microsome stability; details: CD-1, mouse
Method: Microsome stability. CD-1 mouse microsomes were commercially purchased and the reactions were performed as previously described. […] The master mix was pre-incubated at 37° C. for 5 min, then 1 mM NADPH was added to start the microsomal activity reaction and maintained at 37° C. throughout the time course. Reactions were stopped at 0, 5, 15, 30, 45, and 60 min by adding 200 μL acetonitrile and analyzed by mass spectrometry. The appropriate microsome controls were also performed in the same reaction conditions.

HCT116 tumor organoids = experiment: Tumor organoid cytotoxicity (CellTiter-Glo 3D); format: cell-based, human
Method: Cell based cytotoxicity dose response and combination studies. […] Plates were then incubated for 3 days before treatment.
Cell Line Tumor Organoid Culture.
Tumor Organoid Cytotoxicity.

cat-CHD1L ATPase = biological target: T1, cat-CHD1L ATPase (Homo sapiens, UniProt Q86WJ1); experiment: CHD1L ATPase assay with recombinant catalytic domain (cat-CHD1L); format: biochemical; details: for IC50: Table 6, read-out: cat-CHD1L inhibition IC50
T1 construct: inferred from Ni-NTA / imidazole purification; made in house; host or cells: E. coli Rosetta 2 (DE3) pLysS; constructs were a gift from Helena Berglund, Karolinska Institute
T1 sequence (Q86WJ1 16-611 limits assumed): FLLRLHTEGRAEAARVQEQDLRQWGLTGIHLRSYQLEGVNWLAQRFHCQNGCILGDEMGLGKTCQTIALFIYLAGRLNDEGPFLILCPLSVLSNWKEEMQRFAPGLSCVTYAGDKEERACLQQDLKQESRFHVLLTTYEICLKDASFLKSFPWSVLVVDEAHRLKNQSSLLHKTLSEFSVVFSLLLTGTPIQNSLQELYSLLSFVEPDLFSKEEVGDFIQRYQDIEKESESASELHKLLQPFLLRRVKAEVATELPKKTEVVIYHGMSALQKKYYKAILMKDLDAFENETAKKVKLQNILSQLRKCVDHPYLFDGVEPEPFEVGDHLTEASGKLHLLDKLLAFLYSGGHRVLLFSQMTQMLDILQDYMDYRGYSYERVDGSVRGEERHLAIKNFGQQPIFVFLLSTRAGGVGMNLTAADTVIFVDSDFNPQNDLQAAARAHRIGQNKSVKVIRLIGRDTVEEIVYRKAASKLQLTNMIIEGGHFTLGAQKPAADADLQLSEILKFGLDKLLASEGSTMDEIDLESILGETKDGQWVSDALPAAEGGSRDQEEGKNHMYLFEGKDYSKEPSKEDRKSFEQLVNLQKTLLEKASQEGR
Method: All reactions were carried out using low volume non-binding surface 384-well plates (Corning Inc., Corning N.Y.). cat-CHD1L or fl-CHD1L (100 nM) and 200 nM c-Myc DNA or mononucelosome (Active Motif, Carlsbad, Calif.) were added to a buffer containing 50 mM Tris pH 7.5, 50 mM NaCl, 1 mM DTT, 5% glycerol, and the reaction was initiated by the addition of 10 μM ATP (New England Biolabs, Ipswich, Mass.) to a total volume of 10 μL and incubated at 37° C. for 1 h. ATPase activity was assayed by adding 500 nM of Phosphate Sensor (Life Technologies, Carlsbad, Calif.), containing labeled phosphate-binding protein, specifically labeled with the fluorophore MDCC, and measuring excitation (430 nm) and emission (450 nm) immediately on an EnVision® plate reader (PerkinElmer, Hopkinton, Mass.). An inorganic phosphate standard curve was used to convert the fluorescence to [Pi], and enzyme kinetics were determined using Prism8 (GraphPad Software, San Diego, Calif.).
Assay composition was the same as described above using cat-CHD1L, except that the reaction mixture volume was modified to accommodate addition of drug or DMSO. Using a Janus® liquid handler (PerkinElmer, Hopkinton, Mass.), a selected amount of compounds dissolved in 100% DMSO were mixed with 50 mM Tris pH 7.5, 50 mM NaCl, 1 mM DTT, 5% glycerol buffer to 200 μM in 10% DMSO. […] The negative control used was 1% DMSO and 10 mM EDTA was used as a positive control. Reactions were initiated with the addition of 10 μM ATP and incubated at 37° C. for 1 h. ATPase activity was measured by fluorescence by adding 500 nM Phosphate Sensor. cat-CHD1L was screened against a 20,000-compound diversity set from Life Chemicals (Woodbridge, Conn.) and a Kinase Inhibitor library from Selleck Chemicals (Houston, Tex.).
CHD1L Enzyme ATPase Assay. […] All reactions were carried out using low volume nonbinding surface 384-well plates (Corning Inc., Corning, N.Y.). […] The reaction was initiated by the addition of 10 μmol/L ATP (New England Biolabs, Ipswich, Mass.) to a total volume of 10 μL and incubated at 37° C. for 1 hour. ATPase activity was measured by adding 500 nmol/L of Phosphate Sensor (ThermoFisher, Waltham, Mass.) measuring excitation (430 nm) and emission (450 nm) immediately on an Envision plate reader (PerkinElmer, Waltham, Mass.). Background signal was determined by using all assay components excluding the enzyme.

[2] = Homo sapiens, SW-620, 72 h, read-out: 3 D Cytotoxicity 72 hr IC50 (μM) SW620
[3] = Homo sapiens, SW-620, read-out: Tumor Organoid Cytotoxicity IC50 (μM) SW620
[4] = Homo sapiens, HCT-116, 72 h, Table 6, read-out: 3 D Cytotoxicity 72 hr IC50 (μM) HCT116
[5] = Homo sapiens, HCT-116, single agent, Table 4A, read-out: Tumor Organoid Cytotoxicity IC50 (μM) HCT116
[6] = liver microsomes, pH 7.4, In Vitro Half-Life (Min), second series, different liver microsome preparation

SMILES | IC50 (cat-CHD1L ATPase) [µM] | CHD1L enzyme inhibition, in words (cat-CHD1L ATPase; recombinant cat-CHD1L) | IC50 (SW620 tumor organoids; [2]) [µM] | IC50 (SW620 tumor organoids; [3]) [µM] | half-life at 10 μM ([1]; microsomes, pH 7.4) [min] | IC50 (HCT116 tumor organoids; [4]) [µM] | IC50 (HCT116 tumor organoids; [5]) [µM] | half-life at 10 μM [1, 6] [min] | IC50 (SW620 tumor organoids; read-out: 3 D Cytotoxicity 72 hr IC50 (μM) SW620, Table 6) [µM] | IC50 (HCT116 tumor organoids; Table 6, read-out: 3 D Cytotoxicity 72 hr IC50 (μM) HCT116) [µM]
Cc1nc(N2CCCC2)nc(Nc2ccc(N(C)C(=O)Cc3cccs3)cc2)c1F [Compound 6.4] |  |  | > 40 | 28.4 | 31.4 | > 40 | > 30 |  |  | 
Cc1cc(Oc2ccc(NC(=O)c3c[nH]c4ccccc34)cc2)nc(N2CCCC2)n1 [Compound 6.14, N-(4-((6-methyl-2-(pyrrolidin-1-yl)pyrimidin-4-yl)oxy)phenyl)-1H-indole-3-carboxamide] |  |  | 11.1 | 10.4 |  | 15.3 | 15.3 | 70.4 |  | 
Cc1cc(Nc2ccc(NC(=O)Cc3cccs3)cc2)nc(N2CCOCC2)n1 [Compound 6.15, N-(4-((6-methyl-2-morpholinopyrimidin-4-yl)amino)phenyl)-2-(thiophen-2-yl)acetamide] |  |  | 13.1 | 16.4 |  | 19.7 | 19.7 | 22.7 |  | 
Cc1cc(Nc2ccc(NC(=O)Cn3ccnc3)cc2)nc(N2CCCCC2)n1 [Compound 6.51] | 6 |  | 40.7 |  |  | 15.1 |  |  |  | 
Cc1cc(Oc2ccc(NC(=O)Cc3cccs3)cc2)nc(N2CCCC2)n1 [Compound 6.13, N-(4-((6-methyl-2-(pyrrolidin-1-yl)pyrimidin-4-yl)oxy)phenyl)-2-(thiophen-2-yl)acetamide] |  |  | > 20 | > 20 |  | > 40 | > 30 | 43.1 |  | 
COc1cnc(N2CCCC2)nc1Nc1ccc(NC(=O)Cc2cccs2)cc1 [Compound 6.10, N-(4-((5-methoxy-2-(pyrrolidin-1-yl)pyrimidin-4-yl)amino)phenyl)-2-(thiophen-2-yl)-acetamide] |  |  | 24.1 | 22.6 |  | > 40 | > 30 | 16.7 |  | 
Cc1cc(Nc2ccc(NC(=O)Cc3cc(Br)cs3)cc2)n2nc(N)nc2n1 [Compound 6.53] | > 20 |  | > 40 |  |  | > 40 |  |  |  | 
O=C(Cc1cc(Br)cs1)Nc1ccc(CNc2cc(C(F)(F)F)nc(N3CCCC3)n2)cc1 [Compound 6.58] | 1.4 | good enzyme inhibition |  |  |  |  |  |  | 2.2 | 7.8
Cc1cc(Nc2ccc(NC(=O)Cn3ccnc3)cc2)nc(N2CCN(C)CC2)n1 [Compound 6.52] | > 20 |  | > 20 |  |  | > 20 |  |  |  | 
O=C(Cc1cccs1)Nc1ccc(Nc2nc(N3CCCC3)ncc2F)cc1 [Compound 6.2, N-(4-((5-fluoro-2-(pyrrolidin-1-yl)pyrimidin-4-yl)amino)phenyl)-2-(thiophen-2-yl)acetamide] |  |  | > 40 | > 40 |  |  |  | 26.1 |  | 
Cc1cc(Nc2ccc(NC(=O)Cc3cc(Br)cs3)cc2)n2nc(N3CCCC3)nc2n1 [Compound 6.55] | 18.7 |  | > 40 |  |  | > 40 |  |  |  | 

More lines, main results first:

IC50 (cat-CHD1L ATPase) [µM] | CHD1L enzyme inhibition, in words (cat-CHD1L ATPase; recombinant cat-CHD1L) | SMILES | IC50 (SW620 tumor organoids; [2]) [µM] | IC50 (SW620 tumor organoids; [3]) [µM] | half-life at 10 μM ([1]; microsomes, pH 7.4) [min] | IC50 (HCT116 tumor organoids; [4]) [µM] | IC50 (HCT116 tumor organoids; [5]) [µM] | half-life at 10 μM [1, 6] [min] | IC50 (SW620 tumor organoids; read-out: 3 D Cytotoxicity 72 hr IC50 (μM) SW620, Table 6) [µM] | IC50 (HCT116 tumor organoids; Table 6, read-out: 3 D Cytotoxicity 72 hr IC50 (μM) HCT116) [µM]
2.4 |  | Cc1cc(NCc2ccc(NC(=O)Cc3cc(Br)cs3)cc2)nc(N2CCNCC2)n1 [Compound 6.57] | 14.6 |  |  | 10.8 |  |  |  | 
1 |  | O=C(Cc1cc(Br)cs1)Nc1ccc(Nc2cc(C(F)(F)F)nc(N3CCCC3)n2)cc1 [Compound 6.59] | 14.8 |  |  | 11.9 |  |  |  | 
4.5 |  | Cc1cc(Nc2ccc(NC(=O)Cc3cc(Br)cs3)cc2)nc(N2CCN(C)CC2)n1 [Compound 6.48] | 21.8 |  |  | 7.6 |  |  |  | 
1.4 |  | Cc1cc(N2CCN(C)CC2)nc(NCc2ccc(NC(=O)Cc3cc(Br)cs3)cc2)n1 [Compound 6.45] | 27.2 |  |  | 10.6 |  |  |  | 
11.4 |  | Cc1cc(Nc2ccc(NC(=O)Cc3cc(Br)cs3)cc2)nc(N2CCNCC2)n1 [Compound 6.40] | 10.5 |  |  | 4.8 |  |  |  | 
2.3 |  | Cc1cc(Nc2ccc(NC(=O)Cc3cc(Br)cs3)cc2)nc(N2CCCCC2)n1 [Compound 6.49] | 17 |  |  | 14.7 |  |  |  | 
